Results: patent publication US7846905B2, “Agent for inhibiting visceral fat accumulation” (Morinaga Milk Industry Co., Ltd., priority 2005, dated 2010)

Assays:
hemoglobin A1c level = details: WO 2005/095436; cited from earlier work
[1] = rat, in vivo
Method: This example was performed in order to investigate an effect of 3-O-β-D-glucopyranosyl-4-methylergost-7-en-3-ol and a squeezed liquid of Aloe vera on an amount of food ingestion (amount of food consumption) and increase in body weight (amount of increased body weight) of rats.
The sample was dissolved in DMSO, and the concentration of the sample was adjusted with distilled water to 10 μg/ml, to thereby prepare Test Sample C. Meanwhile, a crude solution was obtained by crushing Aloe vera gel with a juicer, and then was subjected to filtration with a No. 200 mesh (manufactured by NBC), to thereby obtain a squeezed liquid of the Aloe vera gel as Test Sample D. It was confirmed that the crush extract of Aloe vera gel contained 0.1% of 3-O-β-D-glucopyranosyl-4-methylergost-7-en-3-ol by mass. In addition, final concentration of DMSO was adjusted to 0.2%. […]
42 days after initiation of the administration, the body weights of the rats were measured, and differences between the body weights on the 42nd day and those measured before the initiation of the administration were regarded as amounts of increased body weights. In addition, weights of food consumed per day were measured once a week from the day of the initiation of the administration, and an average of the weights was regarded as an amount of food consumption per day.

[2] = tested on: ZDF (Zucker Diabetic Fatty) rats; test: Inhibitory effect on visceral fat accumulation: mesenteric fat weight in ZDF rats (Example 1); type: in vivo; details: for Mesenteric fat weight: ZDF rats on high-fat diet, oral once a day for 44 days, measured on 45th day, A-1 25 μg/kg, A-2 2.5 μg/kg compound, B-1 2.5 g/kg, B-2 0.125 g/kg Aloe vera solid content; for Mesenteric fat weight as compared with the group administered with the negative sample (decrease to) / Effect of inhibiting visceral fat accumulation (statistical significance, Tukey-Kramer's test): ZDF rats, 45th day; for Mesenteric fat weight as compared with the group administered with the negative sample (decrease to): negative sample 6.83±1.10 g; for Effect of inhibiting visceral fat accumulation (statistical significance, Tukey-Kramer's test): versus negative sample
Method: The squeezed liquid of Aloe vera gel was diluted 20 folds to prepare Test Sample B-2.
On 45th day from the initiation of the administration, mesenteric fat weights were measured as the visceral fat.

Structure (SMILES)	Effect on hemoglobin A1c level and hyperglycemia (hemoglobin A1c level)	Amount of food consumption as compared with the negative sample group [1]	Mesenteric fat weight [2] [g]	Mesenteric fat weight as compared with the group administered with the negative sample (decrease to) [2] [%]	Effect of inhibiting visceral fat accumulation (statistical significance, Tukey-Kramer's test) [2]
CC(C)C(C)CCC(C)C1CCC2C3=CCC4C(C)C(OC5OC(CO)C(O)C(O)C5O)CCC4(C)C3CCC21C [Compound 1, 3-O-β-D-glucopyranosyl-4-methylergost-7-en-3-ol]	effect of decreasing hemoglobin A1c level and improving hyperglycemia	does not affect the amount of food ingestion			
CC(C)C(C)CCC(C)C1CCC2C3=CCC4C(C)C(OC5OC(CO)C(O)C(O)C5O)CCC4(C)C3CCC21C [Test Sample A-1, 3-O-β-D-glucopyranosyl-4-methylergost-7-en-3-ol]			3.15 ± 0.28	46.2	statistically significant effects of inhibiting visceral fat accumulation
CC(C)C(C)CCC(C)C1CCC2C3=CCC4C(C)C(OC5OC(CO)C(O)C(O)C5O)CCC4(C)C3CCC21C [Test Sample A-2, 3-O-β-D-glucopyranosyl-4-methylergost-7-en-3-ol]			4.99 ± 0.53	73.1	statistically significant effects of inhibiting visceral fat accumulation
CC(C)C(C)CCC(C)C1CCC2C3=CCC4C(C)C(OC5OC(CO)C(O)C(O)C5O)CCC4(C)C3CCC21C [Test Sample C, 3-O-β-D-glucopyranosyl-4-methylergost-7-en-3-ol]		did not show significant increase or decrease in amount of food consumption			
